From patent publication US10800766B2, “Quinoline alkenes as cytoprotective agents” (priority 2015, dated 2020)

Legend:
[1] = target: T1, SERCA (microsomal preparations from HEK 293 cells) (Homo sapiens, UniProt P16615); test: Ca-ATPase assay (NADH-linked, enzyme-coupled ATPase assay); type: biochemical; settings: ATP hydrolysis rate over a range of calcium concentrations, Vmax by fit to Hill function, relative to controls
T1 construct: endogenous in cells; host or cells: HEK 293 cells (microsomal preparation)
Method: A Ca-ATPase assay was performed using microsomal preparations from HEK 293 cells at a series of calcium concentrations corresponding to the physiological range, relative to controls. The ATP hydrolysis rate was measured over a range of calcium concentrations in the presence of test compounds using an NADH-linked, enzyme-coupled ATPase assay adapted for 96-well microplates, with Vmax determined by fitting the ATPase calcium-dependence to the Hill function. Each well contained 2 μg or 7 μg of SR vesicles (optimized for skeletal or cardiac SR, respectively), 50 mM MOPS (pH 7.0), 100 mM KCl, 5 mM MgCl2, 1 mM EGTA, 0.2 mM NADH, 1 mM phosphoenol pyruvate, 5 IU pyruvate kinase, 5 IU lactate dehydrogenase, and 3.5 μg/mL A23187 (a calcium ionophore). CaCl2 was added to set free [Ca^2+] to the specific values. The assay was started upon addition of ATP at a final concentration of 5 mM, and read in a SpectraMax Plus microplate spectrophotometer. The results are summarized in Table 4, where A represents an increase in SERCA Vmax greater than 50% and B represents a value greater than 10% and less than 50%.

Ob/ob mice = test: Effect of a SERCA agonist on the level of blood glucose; type: in vivo, mouse; settings: 50 mg/kg i.p. once a day for 5 days, fasting glucose at baseline and 4 days after administration
Method: Ob/ob mice (10 weeks old, n=7) were intraperitoneally (i.p.) injected with 100 μL of a solution containing 0 (vehicle) or 50 mg/kg of a test compound once a day for a total of 5 days. Fasting glucose was measured at baseline and 4 days after the administration of the test compound. Glucose levels were measured in blood samples drawn from the tail vein using a handheld glucose sensor. Compound effects on blood glucose are shown in Table 5 where A represents a 10-20% reduction in blood glucose, B represents a 21-30% reduction in blood glucose, and C represents a greater than 30% reduction in blood glucose levels.

Human SH-SY5Y cells = test: Cell rescue assay: protection against β-amyloid-induced cell toxicity; type: cell-based; settings: 7.5 uM compound, AB1-42 at 10 uM, 4 days, OD at 490 nm
Method: Protection against β-amyloid-induced cell toxicity. Chonpathompikunlert et al. Eu. J. Pharmacol. 2011, 650, 544-549. Human SH-SY5Y cells are suspended in media containing 2% FBS and 2× Gentamicin. Transfer 100 ul/well culture to 96-well plate (20,000 cells/well; passage #5) and incubate overnight. Prepare compound samples at 30 uM. Add 50 ul of the samples to the cells [[…]] and incubate 3 hours. Make stock of 40 uM AB1-42 peptide in assay media. Transfer 50 ul/well to cells/compounds in assay plate. The final assay volume is 200 ul/well, containing 2% FBS, 2× Gentamicin, 7.5 uM compound and AB1-42 at 10 uM. Incubate for 4 days then add 20 ul of Promega Substrate Cell Titer 96 Aqueous One Solution Reagent to each well. Incubate 37° C. and read OD at 490 nm. The results are summarized in Table 3, where A represents a value greater than 50% cell rescue, B represents a value greater than 10% and less than 50% cell rescue, and C represents a value greater than 1% and less than 10% cell rescue.

[2] = tested on: Human embryonic kidney (HEK293) cells; Mouse neuroblastoma (N2a) cells; test: Cell rescue assay: protection against thapsigargin (TG)-induced cell-death (ALAMARBLUE); type: cell-based; settings: compound 20 μM, 2 hrs before thapsigargin (15 μM for HEK293 cells, 1 μM for N2a cells), 24 hrs; viability as % RFU compared to control
Method: Protection against Thapsigargin (TG)-induced Cell-death. Human embryonic kidney (HEK293) cells were grown in Dulbecco's Modified Eagle's Medium (DMEM) with 10% FBS and 1% antibiotic antimycotic solution (ABAM). Mouse neuroblastoma (N2a) cells were grown in 1:1 DMEM:OPTI-MEM® with 5% FBS and 1% ABAM. All cells were grown in 10% CO2 in a humidified environment of the incubator. Cells grown in 96-well plates were exposed to a test compound (20 μM) for 2 hrs before addition of thapsigargin (15 μM for HEK293 cells and 1 μM for N2a cells) to induce ER stress. After incubation in cell-culture incubator for 24 hrs, ALAMARBLUE® regent (10% v/v) was added to the wells. Fluorescence reading was taken 2 hrs after the addition of the ALAMARBLUE® regent. Cell-viability was calculated as a percentage of relative fluorescence unit (RFU) compared to control. […] The biological results are summarized in Table 2, where each compound was tested at 20 μM and where A represents a viability greater than 50%, B represents a viability greater than 10% and less than 50%, C represents a value below 10%.

CSM14.1 neuronal cells = test: Cell survival assay (thapsigargin-induced cell death, CELLTITER-GLO luminescence); type: cell-based; settings: CSM14.1 cells, compound 2 hrs before about 15 μM thapsigargin, overnight (about 16 to 24 hrs), cell viability
Method: CSM14.1 neuronal cells were maintained in Complete Medium at 32° C.; wherein the Complete Medium contained Dulbecco's modified eagle medium (DMEM) with 10% fetal bovine serum (FSB), 1% L-glutamine, 100 IU/mL penicillin, and 100 μg/mL streptomycin. The cells were recovered from cultures by trypsinization and then seeded in 384 well plates (Greiner #781098) at a concentration of 1,000 cells/well in 20 μL of DMEM Assay Medium, wherein the DMEM Assay Medium contained 2% FBS, 100 IU/mL penicillin, and 100 μg/mL streptomycin. Seeding was performed using a MultiDrop Combi reagent broadcaster. The plates were incubated overnight at 32° C. A test compound was prepared by 2-fold serial dilution in 100% DMSO using a BIOMEK® 2000 liquid handler (Beckman Coulter). A dose-response curve containing 10 concentrations of the test compound was obtained. Using a BIOMEK® FX liquid handler (Beckman Coulter), 2.5 μL of the test compound was transferred from the 100% DMSO serial dilution plate to an intermediate plate containing 47.5 μL of DMEM Assay Medium containing 2% FBS, 100 IU/mL penicillin, and 100 μg/mL streptomycin and mixed. To reduce or eliminate the interference from the compound's precipitation, 6 μL of the diluted compound was immediately transferred to the assay plate to achieve a high compound concentration of 100 μM in 99% DMEM Assay Medium and 1% DMSO. After the assay plates were incubated for 2 hrs, 4 μL of 112.5 μM thapsigargin (TG) (DMSO stock diluted into Assay TC Medium) was dispensed into each testing well with a MultiDrop Combi reagent broadcaster for a final concentration of about 15 μM TG. The tissue culture media (4 μL) containing vehicle only was transferred manually to each control cell using a 16 channel electronic pipette. After the plates were incubated overnight (about 16 to 24 hrs), CELLTITER-GLO® (Promega) (16 μL) was added to all wells and luminescence was measured. High luminescence indicates cell survival. The biological results are summarized in Table 1 where A represents a cell viability EC50 less than 1 μM and B represents a value greater than 1 μM and less than 10 μM.

T1 sequence (P16615 whole entry): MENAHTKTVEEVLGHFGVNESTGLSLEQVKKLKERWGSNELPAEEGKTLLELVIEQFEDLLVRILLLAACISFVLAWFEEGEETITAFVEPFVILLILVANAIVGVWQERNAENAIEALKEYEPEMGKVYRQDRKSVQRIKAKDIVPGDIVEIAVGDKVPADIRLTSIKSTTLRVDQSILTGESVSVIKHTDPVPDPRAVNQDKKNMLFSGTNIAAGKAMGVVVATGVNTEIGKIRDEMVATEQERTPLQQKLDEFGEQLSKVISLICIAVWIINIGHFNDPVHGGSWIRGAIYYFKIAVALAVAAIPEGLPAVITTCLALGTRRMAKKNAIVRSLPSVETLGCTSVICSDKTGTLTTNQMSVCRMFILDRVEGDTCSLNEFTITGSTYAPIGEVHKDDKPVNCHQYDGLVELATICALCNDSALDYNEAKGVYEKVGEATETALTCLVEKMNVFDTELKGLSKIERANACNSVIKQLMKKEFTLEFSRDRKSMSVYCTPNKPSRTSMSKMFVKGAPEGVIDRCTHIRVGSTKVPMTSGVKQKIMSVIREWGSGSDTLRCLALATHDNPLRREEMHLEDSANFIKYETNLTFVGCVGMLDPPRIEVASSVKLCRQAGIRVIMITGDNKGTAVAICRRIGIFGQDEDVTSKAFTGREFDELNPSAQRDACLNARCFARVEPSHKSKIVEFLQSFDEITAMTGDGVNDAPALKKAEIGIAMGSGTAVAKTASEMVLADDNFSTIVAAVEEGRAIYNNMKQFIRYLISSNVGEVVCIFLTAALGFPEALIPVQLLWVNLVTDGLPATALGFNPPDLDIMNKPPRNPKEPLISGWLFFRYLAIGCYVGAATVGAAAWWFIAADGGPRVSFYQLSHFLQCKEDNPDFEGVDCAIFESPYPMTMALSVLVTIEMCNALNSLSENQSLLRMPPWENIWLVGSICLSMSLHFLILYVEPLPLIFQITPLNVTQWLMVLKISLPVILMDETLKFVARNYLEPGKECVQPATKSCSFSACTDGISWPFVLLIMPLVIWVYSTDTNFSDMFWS

Cc1ccc2cccc(/C=C/c3cc(Br)cs3)c2n1 [A2, (E)-8-(2-(4-Bromothiophen-2-yl)vinyl)-2-methylquinoline] was tested, and the “SERCA Vmax Increase” value [1] was “A (A represents an increase in SERCA Vmax greater than 50%)”, the Glucose level reduction (Ob/ob mice) was “B (B represents a 21-30% reduction in blood glucose)” and the “Cell Survival % (cell rescue)” value (Human SH-SY5Y cells) was “B (B represents a value greater than 10% and less than 50% cell rescue)”. The “Cell Survival %” value [2] was “A (A represents a viability greater than 50%)” and the EC50 (CSM14.1 neuronal cells) was under 1000 nM.

In the case of Cc1ccc2cccc(/C=C/c3ccc(Br)s3)c2n1 [A3, (E)-8-(2-(5-Bromothiophen-2-yl)vinyl)-2-methylquinoline], the “SERCA Vmax Increase” value [1] is reported as “A (A represents an increase in SERCA Vmax greater than 50%)”, the Glucose level reduction (Ob/ob mice) is reported as “B (B represents a 21-30% reduction in blood glucose)” and the “Cell Survival % (cell rescue)” value (Human SH-SY5Y cells) is reported as “C (C represents a value greater than 1% and less than 10% cell rescue)”. For the same compound, the “Cell Survival %” value [2] was “B (B represents a viability greater than 10% and less than 50%)” and the EC50 (CSM14.1 neuronal cells) was 1000 to 10000 nM.

Cc1ccc2cccc(/C=C/c3ccc(Cl)cc3)c2n1 [A4, (E)-8-(4-Chlorostyryl)-2-methylquinoline] was tested, and the “SERCA Vmax Increase” value [1] was “B (B represents a value greater than 10% and less than 50%)”, the Glucose level reduction (Ob/ob mice) was “A (A represents a 10-20% reduction in blood glucose)” and the “Cell Survival % (cell rescue)” value (Human SH-SY5Y cells) was “B (B represents a value greater than 10% and less than 50% cell rescue)”. The “Cell Survival %” value [2] was “C (C represents a value below 10%)” and the EC50 (CSM14.1 neuronal cells) was under 1000 nM.

For Cc1ccc2cccc(/C=C/c3ccc(OC(C)C)cc3)c2n1 [A1, (E)-8-(4-Isopropoxystyryl)-2-methylquinoline], the “SERCA Vmax Increase” value [1] was “A (A represents an increase in SERCA Vmax greater than 50%)”, the Glucose level reduction (Ob/ob mice) was “C (C represents a greater than 30% reduction in blood glucose levels)” and the “Cell Survival % (cell rescue)” value (Human SH-SY5Y cells) was “A (A represents a value greater than 50% cell rescue)”. The “Cell Survival %” value [2] was “A (A represents a viability greater than 50%)” and the EC50 (CSM14.1 neuronal cells) was under 1000 nM.

With Cc1ccc2cccc(/C=C/c3cccc(F)c3)c2n1 [A6, (E)-8-(3-Fluorostyryl)-2-methylquinoline] the “SERCA Vmax Increase” value [1] was “B (B represents a value greater than 10% and less than 50%)”, the Glucose level reduction (Ob/ob mice) was “A (A represents a 10-20% reduction in blood glucose)” and the “Cell Survival % (cell rescue)” value (Human SH-SY5Y cells) was “A (A represents a value greater than 50% cell rescue)”. For the same compound, the “Cell Survival %” value [2] was “B (B represents a viability greater than 10% and less than 50%)” and the EC50 (CSM14.1 neuronal cells) was 1000 to 10000 nM.

Cc1ccc2cccc(/C=C/c3cccc(C(F)(F)F)c3)c2n1 [A5, (E)-8-(3-(Trifluoromethyl)styryl)-2-methylquinoline] was tested, and the “SERCA Vmax Increase” value [1] was “A (A represents an increase in SERCA Vmax greater than 50%)”, the Glucose level reduction (Ob/ob mice) was “B (B represents a 21-30% reduction in blood glucose)” and the “Cell Survival % (cell rescue)” value (Human SH-SY5Y cells) was “B (B represents a value greater than 10% and less than 50% cell rescue)”. For the same compound, the “Cell Survival %” value [2] was “B (B represents a viability greater than 10% and less than 50%)” and the EC50 (CSM14.1 neuronal cells) was 1000 to 10000 nM.
